Values after ≈ are worked out from the molar mass of the structure shown. Where two headings read alike, the source gives them in different places.
Tests used:
[1] = system: M. pneumoniae ATCC 15492; assay: in vitro MIC by serial dilution in Friis modified agarose medium; assay type: cell-based; conditions: Mycoplasmoides pneumoniae, ATCC15492; Table 3
[2] = system: Strep. pyogenes A 64/848; assay: MIC by serial dilution in nutrient agar with 5% chocolated horse blood; assay type: cell-based; conditions: Streptococcus pyogenes, A64/848; Table 1
[3] = system: M. dispar NCTC 10125; assay: in vitro MIC by serial dilution in Friis modified agarose medium; assay type: cell-based
[4] = system: Corynebacterium pyogenes CY1; assay: MIC by agar dilution, veterinary bacteria; conditions: CY1, 24 h
[5] = system: E. coli ESS; assay: MIC by serial dilution in nutrient agar with 5% chocolated horse blood; assay type: cell-based; conditions: Escherichia coli; Table 1
[6] = system: M. hyorhinis ATCC 23234; assay: in vitro MIC by serial dilution in Friis modified agarose medium; assay type: cell-based; conditions: Mesomycoplasma hyorhinis, ATCC23234; Table 3
[7] = system: Haemophilus influenzae Q1; assay: MIC by serial dilution in nutrient agar with 5% chocolated horse blood; assay type: cell-based; conditions: Table 1
[8] = system: S. typhimurium S18; assay: MIC by agar dilution, veterinary bacteria; conditions: Salmonella enterica, 24 h
[9] = system: M. suipneumoniae UCD 1; assay: in vitro MIC by serial dilution in Friis modified agarose medium; assay type: cell-based; conditions: Mesomycoplasma hyopneumoniae, UCD1; Table 3
[10] = system: Haemophilus influenzae Wy21; assay: MIC by serial dilution in nutrient agar with 5% chocolated horse blood; assay type: cell-based
[11] = system: Bord. bronchiseptica B08; assay: MIC by agar dilution, veterinary bacteria; conditions: Bordetella bronchiseptica, B08, 24 h
[12] = Mouse blood levels of Example 1 following oral and subcutaneous administration; assay type: in vivo, albino male mice; conditions: read-out: blood conc.; for concentration at 0.5 h: 30 min; for concentration at 1 h: 60 min; for concentration at 2 h: 120 min; for concentration at 4 h: 240 min
Method: Mouse blood levels of Example 1 following its oral and subcutaneous administration
Blood levels were assessed in albino male mice (18-22 g CSI). The dose was 50 mg/kg administered in a 10% DMF solution orally and subcutaneously. The mice were killed at intervals up to 4 hours and the blood assayed microbiologically using B. subtilis.

[13] = system: E. coli NCTC 10418; assay: MIC by serial dilution in nutrient agar with 5% chocolated horse blood; assay type: cell-based; conditions: Escherichia coli, NCTC10418
[14] = system: M. bovigenitalium ATCC 14173; assay: in vitro MIC by serial dilution in Friis modified agarose medium; assay type: cell-based
[15] = system: S.dublin S7; assay: MIC by agar dilution, veterinary bacteria; conditions: Salmonella enterica, S7, 24 h
[16] = system: Bord. bronchiseptica B09; assay: MIC by agar dilution, veterinary bacteria; conditions: Bordetella bronchiseptica, B09, 24 h
[17] = system: Neisseria catarrhalis 1502; assay: MIC by serial dilution in nutrient agar with 5% chocolated horse blood; assay type: cell-based
[18] = system: Corynebacterium xerosis 9755; assay: as above; assay type: cell-based; conditions: Table 1
[19] = system: Staph. aureus Oxford; assay: MIC by agar dilution, veterinary bacteria; conditions: Staphylococcus aureus, 24 h
[20] = Mouse blood levels of Example 3 following oral and subcutaneous administration; assay type: in vivo, albino male mice (strain OLAC: MF-1); conditions: read-out: blood conc.; for concentration at 0.5 h: 30 min; for concentration at 0.75 h: 45 min; for concentration at 1 h: 60 min; for concentration at 1.5 h: 90 min
Method: Mouse blood levels of Example 3 following its oral and subcutaneous administration
Blood levels were assessed in albino male mice (strain OLAC: MF-1, 18-22 g). The dose was 50 mg/kg administered in a 10% ethanol solution orally and subcutaneously. The mice were killed at intervals up to 90 min and the blood assayed microbiologically using B. subtilis ATCC 6633 in TSA at pH 8.0.

[21] = Mean serum concentrations in milk weaned piglets after oral administration; assay type: in vivo; conditions: pig, p.o. 50 mg/kg
Method: Mean serum concentrations in milk weaned piglets of Example 3 after oral administration at 50 mg/kg
Blood levels were assessed in milk weaned piglets (mean bodyweight 4.1 kg). The dose was 50 mg/kg administered orally (intubation) as a 25 mg/ml of 25% aqueous ethanol solution. Piglets were bled at intervals up to […] and the serum assayed microbiologically using B. subtilis ATCC 6633.

[22] = Mean serum concentrations in neonatal piglets after intramuscular or oral administration; assay type: in vivo; conditions: pig; for concentration at 1 h: 60'
Method: Mean serum concentrations in neonatal piglets of Example 3 after intramuscular or oral administration at 50 mg/kg
Blood levels were assessed in neonatal piglets (mean bodyweight ca. 3 kg). The dose was 50 mg/kg administered as a 25 mg/ml of 25% aqueous ethanol solution. Doses were given by intramuscular injection and orally by stomach tube. Piglets were bled at intervals up to 24 hr and the serum assayed microbiologically using B. subtilis ATCC 6633.

## CC(=O)C=C(C)CC1OCC(CC2OC2C(C)C(C)O)C(O)C1O [Example 1, 1-[3R,4R-Dihydroxy-5S-(2S,3S-epoxy-5S-hydroxy-4S-methylhexyl)-2,3,5,6-tetrahydropyran-2-S-yl]-2-methylpent-2E-en-4-one]
[1]
  MIC: > 10 µg/mL
[2]
  MIC: 50 µg/mL (≈ 146 µM)
[3]; Table 3, read-out: MIC
  MIC: 2.5 µg/mL (≈ 7.3 µM)
[4]
  MIC: > 80 µg/mL
[5]
  MIC: 10 µg/mL (≈ 29.2 µM)
[6]
  MIC: 10 µg/mL (≈ 29.2 µM)
[7]
  MIC: 0.5 µg/mL (≈ 1.46 µM)
[8]
  MIC: > 80 µg/mL
[9]
  MIC: > 10 µg/mL
[10]; Table 1, read-out: MIC
  MIC: 1 µg/mL (≈ 2.92 µM)
[11]
  MIC: > 80 µg/mL
[12]; oral 50 mg/kg
  concentration at 5 min: 5900 ng/mL
  concentration at 10 min: 7700 ng/mL
  concentration at 20 min: 4800 ng/mL
  concentration at 0.5 h: < 3000 ng/mL
  concentration at 1 h: < 3000 ng/mL
  concentration at 2 h: < 3000 ng/mL
  concentration at 4 h: < 3000 ng/mL
[12]; sc, subcutaneous 50 mg/kg
  concentration at 5 min: 16400 ng/mL
  concentration at 10 min: 15300 ng/mL
  concentration at 20 min: 9800 ng/mL
  concentration at 0.5 h: 5000 ng/mL
  concentration at 1 h: < 3000 ng/mL
  concentration at 2 h: < 3000 ng/mL
  concentration at 4 h: < 3000 ng/mL
[13]; Table 1, read-out: MIC
  MIC: > 100 µg/mL
[14]; Table 3, read-out: MIC
  MIC: 0.5 µg/mL (≈ 1.46 µM)
[15]
  MIC: > 80 µg/mL
[16]
  MIC: 20 µg/mL (≈ 58.4 µM)
[17]; Table 1, read-out: MIC
  MIC: 0.2 µg/mL (≈ 0.584 µM)
[18]
  MIC: > 100 µg/mL

## CCC(=O)C=C(C)CC1OCC(CC2OC2C(C)C(C)O)C(O)C1O [Example 2, 1-[3R,4R-Dihydroxy-5S-(2S,3S-epoxy-5-S-hydroxy-4S-methylhexyl)tetrahydropyran-2S-yl]-2-methylhex-2E-en-4-one]
[19]
  MIC: 0.312 µg/mL (≈ 0.875 µM)
[1]
  MIC: > 10 µg/mL
[2]
  MIC: 12.5 µg/mL (≈ 35.1 µM)
[3]
  MIC: 0.5 µg/mL (≈ 1.4 µM)
[4]
  MIC: > 40 µg/mL
[6]
  MIC: 2.5 µg/mL (≈ 7.01 µM)
[7]
  MIC: 0.2 µg/mL (≈ 0.561 µM)
[8]
  MIC: > 40 µg/mL
[9]
  MIC: 5 µg/mL (≈ 14 µM)
[10]
  MIC: 0.5 µg/mL (≈ 1.4 µM)
[11]
  MIC: > 40 µg/mL
[13]
  MIC: > 50 µg/mL
[14]
  MIC: 0.1 µg/mL (≈ 0.281 µM)
[15]
  MIC: > 40 µg/mL
[16]
  MIC: 40 µg/mL (≈ 112 µM)
[17]
  MIC: 0.5 µg/mL (≈ 1.4 µM)
[18]
  MIC: 25 µg/mL (≈ 70.1 µM)

## CCCCC(=O)C=C(C)CC1OCC(CC2OC2C(C)C(C)O)C(O)C1O [Example 3, 1-[3R,4R-Dihydroxy-5S-(2S,3S-epoxy-5S-hydroxy-4S-methylhexyl)tetrahydropyran-2S-yl]-2-methyloct-2E-en-4-one]
[19]
  MIC: 2.5 µg/mL (≈ 6.5 µM)
[1]
  MIC: 10 µg/mL (≈ 26 µM)
[20]; oral 50 mg/kg
  concentration at 5 min: 9400 ng/mL
  concentration at 10 min: 5100 ng/mL
  concentration at 20 min: < 1500 ng/mL
  concentration at 0.5 h: < 1500 ng/mL
  concentration at 0.75 h: < 1500 ng/mL
  concentration at 1 h: < 1500 ng/mL
  concentration at 1.5 h: < 1500 ng/mL
[20]; sc, subcutaneous 50 mg/kg
  concentration at 5 min: 19800 ng/mL
  concentration at 10 min: 15500 ng/mL
  concentration at 20 min: 7300 ng/mL
  concentration at 0.5 h: 2200 ng/mL
  concentration at 0.75 h: < 1500 ng/mL
  concentration at 1 h: < 1500 ng/mL
  concentration at 1.5 h: < 1500 ng/mL
[3]; Table 3, read-out: MIC
  MIC: 0.25 µg/mL (≈ 0.65 µM)
[4]
  MIC: > 80 µg/mL
[5]
  MIC: 1 µg/mL (≈ 2.6 µM)
[6]
  MIC: 0.5 µg/mL (≈ 1.3 µM)
[7]
  MIC: 0.2 µg/mL (≈ 0.52 µM)
[8]
  MIC: > 80 µg/mL
[9]
  MIC: 1 µg/mL (≈ 2.6 µM)
[10]; Table 1, read-out: MIC
  MIC: 0.2 µg/mL (≈ 0.52 µM)
[11]
  MIC: > 80 µg/mL
[21]; 10'
  concentration at 10 min: 2100 ng/mL
[21]; 20'
  concentration at 20 min: 1900 ng/mL
[21]; 40'
  concentration at 40 min: 720 ng/mL
[21]; 60'
  concentration at 1 h: 1100 ng/mL
[21]; 2 hr
  concentration at 2 h: 480 ng/mL
[21]; 3 hr
  concentration at 3 h: 370 ng/mL
[21]; 4 hr
  concentration at 4 h: 200 ng/mL
[21]; 6 hr
  concentration at 6 h: 110 ng/mL
[21]; 8 hr
  concentration at 8 h: < 60 ng/mL
[13]; Table 1, read-out: MIC
  MIC: > 100 µg/mL
[22]; im, i.m. 50 mg/kg
  concentration at 10 min: 8500 ng/mL
  concentration at 20 min: 7900 ng/mL
  concentration at 40 min: 5100 ng/mL
  concentration at 1 h: 4300 ng/mL
  concentration at 2 h: 1300 ng/mL
  concentration at 3 h: 1200 ng/mL
  concentration at 4 h: < 70 ng/mL
[22]; po, p.o. 50 mg/kg
  concentration at 10 min: 3100 ng/mL
  concentration at 20 min: 2000 ng/mL
  concentration at 40 min: 1400 ng/mL
  concentration at 1 h: 830 ng/mL
  concentration at 2 h: 700 ng/mL
  concentration at 3 h: 600 ng/mL
  concentration at 4 h: < 70 ng/mL
[14]; Table 3, read-out: MIC
  MIC: 0.05 µg/mL (≈ 0.13 µM)
[15]
  MIC: > 80 µg/mL
[16]
  MIC: 40 µg/mL (≈ 104 µM)
[17]; Table 1, read-out: MIC
  MIC: 0.5 µg/mL (≈ 1.3 µM)
[18]
  MIC: 100 µg/mL (≈ 260 µM)

From patent US4312874A, “Antibacterial compounds, processes for their preparation and compositions containing them” (Beecham Group Limited, priority 1979, dated 1982)
